From US5191072A, “Lipid A monosaccharide analogues” (priority 1989, dated 1993)
Like-named read-outs stand apart in the source and are kept apart here.

Assays:
[1] = system: neutrophils; assay: O2^- production stimulating activity in neutrophils; format: cell-based, C3 H/HeN mouse; settings: Neutrophil, 1 h, read-out: Stimulation %
Experimental: O2^- Production Stimulating Activity in Neutrophils
O2^- production stimulating activity in neutrophils was evaluated utilizing the following experimental system [see J. Exp. Med., 160, 1656-1671, 1984]. To the peritoneal cavity of C3 H/HeN mouse (male, 8-9 week-aged), physiological saline containing 0.2% (w/v) casein was administered. Three hours later, peritoneal exudate cells (90% or more of which are neutrophils) were collected. These cells (1.7×10^6 cells/ml/tube) were incubated in the presence of the compound according to this invention (1 μg/ml) at 37° C. for 60 minutes. After addition of 80 μM of cytochrome C and 0.1 μM of formyl-methionyl-leucyl-phenylalanine (FMLP), the mixture was incubated in the presence of or in the absence of Superoxide dismutase (SOD) at 37° C. for 10 minutes. Then, SOD-inhibitable cytochrome C reduction was estimated from the difference between absorbances at 550 nm and 541.7 nm, and from molar absorption coefficient (16.5×10^3). O2^- production-stimulating activity was shown in Stimulation % in the following formula.
Stimulation %=(the amount of O2^- produced in the presence of compounds of the invention)/(the amount of O2^- produced in the absence of compounds of the invention)×100-100

[2] = system: galactosamine-sensitized mice; assay: Lethal toxicity in galactosamine-sensitized mice; format: in vivo; settings: intravenous, C57BL mouse, D-galactosamine/HCl 10 mg/mouse i.p.; observed to seventh day; 10080 min
Experimental: (§1) Lethal Toxicity in Galactosamine-Sensitized Mice
(§2) Lethal toxicity in galactosamin-sensitized mice was evaluated by utilizing the following experiment system [see J.Biochem., 98, 395-406 pp., 1985].
(§3) To C57BL mouse (male, 7-week aged), 10 mg/mouse of D-galactosamine/HCl was intraperitoneally administered. Immediately after that, the compound of this invention was intravenously administered. After these administrations, general conditions of the mouse were observed every one hour for seven hours, and every day from the following day to the seventh day.

[3] = system: E.coli. 589 strain; assay: Nonspecific protective activity against bacterial infection in immunosuppressed mouse; format: in vivo; settings: ICR mice, cyclophosphamide 200 mg/kg, E.coli 1.0×10^7 CFU/mouse i.p.
Experimental: Nonspecific Protective Activity Against Bacterial Infection in Immunosuppressed Mouse
Protective effect against bacterial infection in immunosuppressed mouse was evaluated by utilizing the following experiment system.
To a group of ten ICR mice (male, 5-week aged), cyclophosphamide (200 mg/kg) was intraperitoneally administered. Three days later, the compound of this invention was also intraperitoneally administered. Twenty four hours later, E.coli. 589 strain, was intraperitoneally inoculated at 1.0×10^7 CFU/mouse. The protective activities against infection was evaluated from survival rate (%) of mice after six days of bacterial infection.

[4] = system: TNF; assay: TNF-producing activity (TNF titer in serum of mice, cytotoxicity assay using L929 cells); format: in vivo; settings: 10 μg/mouse intravenously, Corynebacterium parvum-primed ICR mouse, serum at 90 minutes; titer = reciprocal of dilution showing 50% cytotoxicity
Experimental: TNF-producing activity was evaluated utilizing the following experiment system.
The first stimulating agent, 5% Corynebacterium parvum suspension (0.2 ml physiological saline solution) was intravenously administered to ICR mouse (female, 6-7 week-aged). Nine days later, the second stimulating agent, the compound of this invention was intravenously administered to the same mouse at 10 μg/mouse. In 90 minutes, 0.5-1 ml of blood was taken from the retro orbital plexus. The obtained blood was allowed to clot at room temperature for five to six hours, and centrifuged at 7200×g for five minutes to separate serum. The obtained serum was incubated at 56° C. for 30 minutes for inactivation before use in the following experiment.
TNF activity in the serum was measured with cytotoxicity assay using L929 cells. L929 cells were prepared in concentration of 6×10^4 cells/well (0.1 ml) RPMI 1640 medium containing 10% FBS and 2 μg/ml actinomycin D in 96-well plates. Serial dilution of obtained serum in RPMI 1640 medium containing 10% FBS was added to each well in the plate (0.1 ml/well). After a 48 hr incubation at 37° C., the viable cells were fixed with methanol. […] Next, absorbance at 550 nm was measured. Finally, cytotoxicity ratio (%) was calculated according to the following formula, and the reciprocal of dilution of the serum showing 50% cytotoxicity was determined for TNF titer in serum (U/ml). […]

[5] = Lethal toxicity in galactosamine-sensitized mice; format: in vivo; settings: galactosamine-sensitized mice; intravenous, C57BL mouse, D-galactosamine/HCl 10 mg/mouse i.p.; observed to seventh day; read-out: LD50 (galactosamine load)
Experimental: as §1, §2, §3

[6] = compound 1 μg/ml, 37° C., 60 minutes, 0.1 μM FMLP, mouse peritoneal exudate cells

Work on CCCCCCCCCCCCCCC(CCCCCCCCCCC)CC(=O)O[C@H]1[C@H](OP(=O)(O)O)[C@@H](CO)OC(O)[C@@H]1NC(=O)C[C@H](O)CCCCCCCCCCC (mixture of isomers) [Compound 47, 2-deoxy-2-[(3R)-3-hydroxytetradecanamido]-4-O-phosphono-3-O-[(3RS)-3-undecylheptadecanoyl]-D-glucopyranose] yielded an activation at 1 µg/mL [1, 6] of 73%.
For CCCCCCCCCCCCCC(=O)OC(CCCCCCCCCCC)CC(=O)NC1C(OCC2OC(OP(=O)(O)O)C(NC(=O)CC(O)CCCCCCCCCCC)C(OC(=O)CC(O)CCCCCCCCCCC)C2O)OC(CO)C(OP(=O)(O)O)C1OC(=O)CC(CCCCCCCCCCC)OC(=O)CCCCCCCCCCCCC (stereo not shown) [Lipid A], the “LD50 (galactosamine load)” value [2] was 0.3 µg/kg and the “survival rate of mice after six days of infection” value (“survival rate of mice” for short) ([3]; 0.05 mg/kg i.p.) was 75%.
With CCCCCCCCCCCCC(CCCCCCCCCCC)CC(=O)O[C@H]1[C@H](OP(=O)(O)O)[C@@H](CO)OC(O)[C@@H]1NC(=O)C[C@H](O)CCCCCCCCCCC (mixture of isomers) [Compound 46, 2-deoxy-2-[(3R)-3-hydroxytetradecanamido]-4-O-phosphono-3-O-[(3RS)-3-undecylpentadecanoyl]-D-glucopyranose] the “the amount of the TNF in serum” value [4] was 292354 U/ml.
With CCCCCCCCCCCCCCCCC(CCCCCCCCCCC)CC(=O)O[C@H]1[C@H](OP(=O)(O)O)[C@@H](CO)OC(O)[C@@H]1NC(=O)C[C@H](O)CCCCCCCCCCC (mixture of isomers) [Compound 48, 2-deoxy-2-[(3R)-3-hydroxytetradecanamido]-4-O-phosphono-3-O-[(3RS)-3-undecylnonadecanoyl]-D-glucopyranose] the activation at 1 µg/mL [1, 6] was 69%.
With CCCCCCCCCCCCCC(=O)OC(CCCCCCCCCCC)CC(=O)O[C@H]1[C@H](OP(=O)(O)O)[C@@H](CO)OC(O)[C@@H]1NC(=O)CC(O)CCCCCCCCCCC (stereo partly drawn) [GLA60, 2-deoxy-2-(3-hydroxytetradecanaymidno)-4-0-phosphorno-3-0-[(3-O-tetradecanoyl)-tetradecanoyl]-D-glucopyranose] the activation at 1 µg/mL ([1]; Mus musculus) was 71%, the “the amount of the TNF in serum” value [4] was 216809 U/ml and the LD50 at 168 h [5] was 3 µg/kg. The “survival rate of mice” value ([3]; 0.005 mg/kg i.p.) was 33%, the “survival rate of mice” value ([3]; 0.05 mg/kg i.p.) was 43% and the “survival rate of mice” value ([3]; 0.5 mg/kg i.p.) was 70%.
For CCCCCCCCCCCCCCC(CCCCCCCCCCC)CC(=O)O[C@H]1[C@H](OP(=O)(O)O)[C@@H](CO)OC[C@@H]1NC(=O)C[C@H](O)CCCCCCCCCCC (stereo partly shown) [Compound 47*], the activation at 1 µg/mL ([1]; Mus musculus) was 111% and the LD50 at 168 h [5] was 11.8 µg/kg.
